Test results published in PubChem BioAssay AID248 (DTP/NCI, 2004).
Several values for one entry are separate records, joined by “and”; a condition that tells them apart may be missing. Identical values can stand only once. Inconclusive results and toxic doses are left out.

Test system: L1210 leukemia ip in BDF1 mice, survival T/C
Assay: NCI In Vivo Anticancer Drug Screen. Data for tumor model L1210 Leukemia (intraperitoneal) in B6D2F1 (BDF1) mice
Conditions: endpoint: mean survival time, higher = longer survival
Outline: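 Transplantable tumor model; survival measured in treated vs vehicle control mice. Value = treated/control.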

[1] = dose: 100.0 mg/kg/injection, schedule: Q04DX003 (ip), vehicle: saline with Tween-80
[2] = dose: 200.0 mg/kg/injection, schedule: Q04DX003 (ip), vehicle: saline with Tween-80
[3] = dose: 400.0 mg/kg/injection, schedule: Q04DX003 (ip), vehicle: saline with Tween-80
[4] = dose: 100.0 mg/kg/injection, schedule: Q01DX001 (ip), vehicle: saline
[5] = dose: 100.0 mg/kg/injection, schedule: Q04DX003 (ip), vehicle: saline
[6] = dose: 200.0 mg/kg/injection, schedule: Q01DX001 (ip), vehicle: saline
[7] = dose: 200.0 mg/kg/injection, schedule: Q04DX003 (ip), vehicle: saline
[8] = dose: 400.0 mg/kg/injection, schedule: Q01DX001 (ip), vehicle: saline
[9] = dose: 400.0 mg/kg/injection, schedule: Q04DX003 (ip), vehicle: saline
[10] = dose: 25.0 mg/kg/injection, schedule: Q04DX002 (ip), vehicle: Klucel (hydroxypropylcellulose) (HPC)
[11] = dose: 50.0 mg/kg/injection, schedule: Q04DX002 (ip), vehicle: Klucel (hydroxypropylcellulose) (HPC)
[12] = dose: 100.0 mg/kg/injection, schedule: Q04DX002 (ip), vehicle: Klucel (hydroxypropylcellulose) (HPC)
[13] = dose: 100.0 mg/kg/injection, schedule: Q04DX003 (ip), vehicle: Klucel (hydroxypropylcellulose) (HPC)
[14] = dose: 200.0 mg/kg/injection, schedule: Q04DX003 (ip), vehicle: Klucel (hydroxypropylcellulose) (HPC)
[15] = dose: 25.0 mg/kg/injection, schedule: Q01DX001 (ip), vehicle: Klucel (hydroxypropylcellulose) (HPC)
[16] = dose: 50.0 mg/kg/injection, schedule: Q01DX001 (ip), vehicle: Klucel (hydroxypropylcellulose) (HPC)
[17] = dose: 50.0 mg/kg/injection, schedule: Q04DX003 (ip), vehicle: Klucel (hydroxypropylcellulose) (HPC)
[18] = dose: 100.0 mg/kg/injection, schedule: Q01DX001 (ip), vehicle: Klucel (hydroxypropylcellulose) (HPC)
[19] = dose: 400.0 mg/kg/injection, schedule: Q04DX003 (ip), vehicle: Klucel (hydroxypropylcellulose) (HPC)

C#CCNc1ncnc2c1ncn2C1OC(CO)C(O)C1O (stereo not drawn)
T/C (dose: 50.0 mg/kg/injection, schedule: Q01DX005 (ip), vehicle: saline): 105 % of control | T/C (dose: 100.0 mg/kg/injection, schedule: Q01DX005 (ip), vehicle: saline): 101 % of control | T/C (dose: 200.0 mg/kg/injection, schedule: Q01DX005 (ip), vehicle: saline): 94 % of control

CCCC(O)C1CCCCC1O (stereo not drawn)
T/C [1]: 113 % of control | T/C [2]: 100 % of control | T/C [3]: 103 % of control

Cc1ccc(C)c(C(=O)CCCCl)c1
T/C [1]: 98 % of control

CC(=O)OC12C=CC(C(C)=C1)C1C(=O)C=CC(=O)C12 (stereo not drawn)
T/C [4]: 103 % of control | T/C (dose: 100.0 mg/kg/injection, schedule: Q01DX009 (ip), vehicle: saline): 98 % of control | T/C [5]: 103 % of control | T/C [6]: 97 % of control | T/C (dose: 200.0 mg/kg/injection, schedule: Q01DX009 (ip), vehicle: saline): 89 % of control | T/C [7]: 103 % of control | T/C [8]: 97 % of control | T/C (dose: 400.0 mg/kg/injection, schedule: Q01DX009 (ip), vehicle: saline): 90 % of control | T/C [9]: 87 % of control

Clc1c2c(nc3ccccc13)CCCC2
T/C [4]: 95 % of control | T/C [6]: 95 % of control

Cn1nnnc1/N=C/c1ccccc1
T/C [5]: 105 % of control | T/C [7]: 94 % of control | T/C [9]: 94 % of control

CC(=O)[C@H]1C[C@@H](CC(=O)O)C1(C)C
T/C [4]: 106 % of control | T/C [5]: 96 % of control | T/C [6]: 103 % of control | T/C [7]: 88 % of control | T/C [8]: 97 % of control | T/C [9]: 96 % of control

CN(C)C(=O)N/C=C/NC(=O)N(C)C
T/C (dose: 12.5 mg/kg/injection, schedule: Q04DX002 (ip), vehicle: saline with Tween-80): 92 % of control | T/C (dose: 25.0 mg/kg/injection, schedule: Q04DX002 (ip), vehicle: saline with Tween-80): 89 % of control | T/C (dose: 50.0 mg/kg/injection, schedule: Q04DX002 (ip), vehicle: saline with Tween-80): 106 % of control

O=NN(CCCl)C(=O)NCc1ccc(-c2ccc(CNC(=O)N(CCCl)N=O)cc2)cc1
T/C (dose: 177.0 mg/kg/injection, schedule: Q01DX001 (ip), vehicle: other): 156 % of control and 188 % of control | T/C (dose: 266.0 mg/kg/injection, schedule: Q01DX001 (ip), vehicle: other): 180 % of control | T/C (dose: 400.0 mg/kg/injection, schedule: Q01DX001 (ip), vehicle: other): 194 % of control | T/C (dose: 400.0 mg/kg/injection, schedule: Q01DX009 (ip), vehicle: carboxymethylcellulose (CMC)): 159 % of control and 274 % of control | T/C (dose: 600.0 mg/kg/injection, schedule: Q01DX001 (ip), vehicle: other): 264 % of control | T/C (dose: 600.0 mg/kg/injection, schedule: Q01DX009 (ip), vehicle: carboxymethylcellulose (CMC)): 261 % of control

NC(=O)c1ccc(Cl)c(Cl)c1
T/C [1]: 97 % of control | T/C [2]: 95 % of control | T/C [3]: 91 % of control

CS(=O)(=O)N1CC(O)CN(S(C)(=O)=O)CC(O)C1 (stereo not drawn)
T/C [10]: 100 % of control | T/C [11]: 100 % of control | T/C [12]: 110 % of control

O=C1OC(OC(=O)c2ccccc2)C(Br)=C1Br (stereo not drawn)
T/C [13]: 98 % of control | T/C [14]: 104 % of control

O=C1CNc2ccc(Cl)cc2N1
T/C (dose: 100.0 mg/kg/injection, schedule: Q04DX003 (ip), vehicle: acetone): 92 % of control | T/C (dose: 200.0 mg/kg/injection, schedule: Q04DX003 (ip), vehicle: acetone): 95 % of control | T/C (dose: 400.0 mg/kg/injection, schedule: Q04DX003 (ip), vehicle: acetone): 88 % of control

NCCCNCCCN
T/C [10]: 103 % of control | T/C [11]: 97 % of control | T/C [12]: 103 % of control and 117 % of control

CC(C)(C)C1CCC(NC2=NCCO2)CC1 (stereo not drawn)
T/C [15]: 103 % of control | T/C [16]: 104 % of control | T/C [17]: 96 % of control | T/C [18]: 93 % of control and 100 % of control | T/C [13]: 102 % of control

O=c1cc(CNc2ccc(Cl)cc2)[nH]c(=O)[nH]1
T/C [1]: 98 % of control | T/C [2]: 101 % of control | T/C [3]: 95 % of control

C[Si](C)(C)Oc1ccccc1[Si](C)(C)c1ccccc1
T/C [13]: 101 % of control | T/C [14]: 98 % of control | T/C [19]: 102 % of control

CC(=O)Nc1ccc([N+](=O)[O-])cc1
T/C (dose: 100.0 mg/kg/injection, schedule: Q04DX002 (ip), vehicle: gum acacia): 98 % of control | T/C (dose: 200.0 mg/kg/injection, schedule: Q04DX002 (ip), vehicle: gum acacia): 88 % of control | T/C (dose: 400.0 mg/kg/injection, schedule: Q04DX002 (ip), vehicle: gum acacia): 107 % of control

C=CCOc1ccnc(SC)n1
T/C (dose: 75.0 mg/kg/injection, schedule: Q01DX009 (ip), vehicle: Klucel (hydroxypropylcellulose) (HPC)): 98 % of control | T/C (dose: 150.0 mg/kg/injection, schedule: Q01DX009 (ip), vehicle: Klucel (hydroxypropylcellulose) (HPC)): 103 % of control | T/C (dose: 300.0 mg/kg/injection, schedule: Q01DX009 (ip), vehicle: Klucel (hydroxypropylcellulose) (HPC)): 90 % of control

O=C(O)C1C2CC3OCC1C3C2 (stereo not drawn)
T/C (dose: 100.0 mg/kg/injection, schedule: Q04DX003 (ip), vehicle: alkali diluted with saline): 104 % of control | T/C (dose: 200.0 mg/kg/injection, schedule: Q04DX003 (ip), vehicle: alkali diluted with saline): 98 % of control | T/C (dose: 400.0 mg/kg/injection, schedule: Q04DX003 (ip), vehicle: alkali diluted with saline): 93 % of control

CCCCN(CCCC)CC(O)c1cc(Cl)cc2cccnc12 (stereo not drawn)
T/C (dose: 12.5 mg/kg/injection, schedule: Q01DX009 (ip), vehicle: Klucel (hydroxypropylcellulose) (HPC)): 106 % of control | T/C (dose: 25.0 mg/kg/injection, schedule: Q01DX009 (ip), vehicle: Klucel (hydroxypropylcellulose) (HPC)): 98 % of control | T/C (dose: 50.0 mg/kg/injection, schedule: Q01DX009 (ip), vehicle: Klucel (hydroxypropylcellulose) (HPC)): 109 % of control

CCOC(=O)c1cnc2c(cnn2C(C)C)c1NN
T/C [13]: 99 % of control | T/C [14]: 99 % of control | T/C [19]: 96 % of control

O=C(NCCCCC(NC(=O)OCc1ccccc1)C(=O)NCCCCCCNCCCCCCNC(=O)C(CCCCNC(=O)OCc1ccccc1)NC(=O)OCc1ccccc1)OCc1ccccc1 (stereo not drawn)
T/C [4]: 94 % of control | T/C [6]: 92 % of control | T/C [8]: 96 % of control

CCCCCCCCCCCCCCCCCC(=O)C(C)(C)C
T/C [15]: 92 % of control | T/C [16]: 98 % of control | T/C [18]: 98 % of control | T/C (dose: 200.0 mg/kg/injection, schedule: Q01DX001 (ip), vehicle: Klucel (hydroxypropylcellulose) (HPC)): 98 % of control | T/C (dose: 400.0 mg/kg/injection, schedule: Q01DX001 (ip), vehicle: Klucel (hydroxypropylcellulose) (HPC)): 95 % of control

CCCCC(CC)CCC(C)O (stereo not drawn)
T/C (dose: 50.0 mg/kg/injection, schedule: Q01DX009 (ip), vehicle: saline with Tween-80): 96 % of control | T/C (dose: 100.0 mg/kg/injection, schedule: Q01DX009 (ip), vehicle: saline with Tween-80): 94 % of control | T/C [1]: 108 % of control | T/C [2]: 95 % of control

CC(=O)OC1C(OCc2ccccc2)OC(COCc2ccccc2)C(OC2OC(COCc3ccccc3)C(OCc3ccccc3)C(OCc3ccccc3)C2OCc2ccccc2)C1OCc1ccccc1 (stereo not drawn)
T/C (dose: 5.31 mg/kg/injection, schedule: Q01DX009 (ip), vehicle: Klucel (hydroxypropylcellulose) (HPC)): 97 % of control | T/C (dose: 10.62 mg/kg/injection, schedule: Q01DX009 (ip), vehicle: Klucel (hydroxypropylcellulose) (HPC)): 94 % of control | T/C (dose: 12.5 mg/kg/injection, schedule: Q04DX003 (ip), vehicle: Klucel (hydroxypropylcellulose) (HPC)): 87 % of control and 92 % of control | T/C (dose: 21.25 mg/kg/injection, schedule: Q01DX009 (ip), vehicle: Klucel (hydroxypropylcellulose) (HPC)): 94 % of control | T/C (dose: 25.0 mg/kg/injection, schedule: Q04DX003 (ip), vehicle: Klucel (hydroxypropylcellulose) (HPC)): 87 % of control | T/C [17]: 87 % of control and 88 % of control | T/C (dose: 75.0 mg/kg/injection, schedule: Q04DX003 (ip), vehicle: other): 91 % of control | T/C (dose: 85.0 mg/kg/injection, schedule: Q01DX009 (ip), vehicle: Klucel (hydroxypropylcellulose) (HPC)): 86 % of control | T/C (dose: 115.0 mg/kg/injection, schedule: Q04DX003 (ip), vehicle: other): 91 % of control | T/C (dose: 170.0 mg/kg/injection, schedule: Q04DX003 (ip), vehicle: other): 93 % of control
